Laboratory results reported in US20180042931A1 (Bayer Pharma Aktiengesellschaft, priority 2015, published 2018).

Key:
[1] = system: constitutive active colorectal cancer cell (CRC) Wnt pathway; assay: Cellular reporter assay, HCT116 cells stably transfected with Super TopFlash vector (HCT116-TOP), luciferase readout; type: cell-based; conditions: Homo sapiens, HCT-116, 36 hours incubation, luciferase expression, average or median values
Protocol: In order to discover and characterize small molecules which inhibit the constitutive active colorectal cancer cell (CRC) Wnt pathway, a cellular reporter assay was employed. The corresponding assay cell was generated by transfection of the colorectal cancer cell line HCT116 (ATCC, #CCL-247) with the Super TopFlash vector (Morin, Science 275, 1997, 1787-1790; Molenaar et al., Cell 86 (3), 1996, 391-399). The HCT116 cell line is cultivated at 37° C. and 5% CO2 in DMEM/F-12 (Life Technologies, #11320-074), supplemented with 2 mM glutamine, 20 mM HEPES, 1.4 mM pyruvate, 0.15% Na-bicarbonate and 10% foetal bovine serum (GIBCO, #10270), this cancer cell line is pathophysiological relevant since it carries a deletion of position S45 in the β-catenin gene, leading to constitutive active Wnt signaling. Stable transfectants were generated by cotransfection with pcDNA3 and selection of stable transfected cells with 1 mg/mL G418.
(§1) In preparation of the assay, the two cell lines were plated 24 hours before at 10000 cells per well of a 384 micro titre plate (MTP) in 30 μL growth medium. Selective inhibitory activity for small molecules on the mutated Wnt pathway was determined after parallel incubation of both (TOP and FOP) HCT116 reporter cell lines with a compound dilution series from 50 μM to 15 nM in steps of 3.16-fold dilutions in CAFTY buffer (130 mM NaCl, 5 mM KCl, 20 mM HEPES, 1 mM MgCl2, 5 mM NaHCO3, pH 7.4) containing 2 mM Ca^2+ and 0.01% BSA. The compounds were thereby serially prediluted in 100% DMSO and thereafter in addition 50 fold into the CAFTY compound dilution buffer (described above). From this dilution 10 μL were added to the cells in 30 μL growth medium and incubated for 36 hours at 37° C. and 5% CO2. Thereafter luciferase assay buffer (1:1 mixture of luciferase substrate buffer (20 mM Tricine, 2.67 mM MgSO4, 0.1 mM EDTA, 4 mM DTT, 270 μM Coenzyme A, 470 μM Luciferin, 530 μM ATP, ph adjusted to pH 7.8 with a sufficient volume of 5M NaOH) and Triton buffer (30 mL Triton X-100, 115 mL glycerol, 308 mg Dithiothreitol, 4.45 g Na2HPO4.2H2O, 3.03 g TRIS HCl, ad 1I H2O, pH 7.8) was added as equal volume to the compound solution on the cells to determine luciferase expression as a measure of Wnt signaling activity in a luminometer.

[2] = system: FOP control vector (randomized, non-functional sequence instead of functional TCF elements) in HCT116 cells; assay: Control reporter assay, HCT116 cells stably transfected with FOP control vector (HCT116-FOP), luciferase readout; type: cell-based; conditions: Homo sapiens, HCT-116, 36 hours incubation, luciferase expression, dilution series up to 50 μM
Protocol: In a parallel approach, HCT116 cells were cotransfected with the FOP control vector and pcDNA3. The FOP vector is identical to the TOP construct, but it contains instead of functional TCF elements a randomized, non-functional sequence. For this transfection a stable transfected cell line was generated as well.
as §1

| SMILES | IC50 [1] | IC50 [2] |
| --- | --- | --- |
| COc1ccc(NC(=O)c2ccc(-c3cccnc3)cc2)cc1NC(=O)CN1CCOCC1 [Example 38, N-{4-methoxy-3-[(morpholin-4-ylacetyl)amino]phenyl)-4-(pyridin-3-yl)benzamide] | 10900 nM | ≥ 50000 nM |
| Cc1ccc(-c2ccc(NC(=O)c3ccc(OC(F)(F)F)c(NC(=O)CN4CCOCC4)c3)cc2)cn1 [Example 13, N-[4-(6-methylpyridin-3-yl)phenyl]-3-[(morpholin-4-ylacetyl)amino]-4-(trifluoromethoxy)benzamide] | 557 nM | ≥ 50000 nM |
| O=C(Nc1ccc(-c2cccnc2F)cc1)c1ccc(Cl)c(NC(=O)C2(N3CCOCC3)CC2)c1 [Example 22, 4-chloro-N-[4-(2-fluoropyridin-3-yl)phenyl]-3-({[1-(morpholin-4-yl)cyclopropyl]carbonyl}amino)-benzamide] | 140 nM | ≥ 50000 nM |
| COc1ncccc1-c1ccc(NC(=O)c2ccc(OC(F)(F)F)c(NC(=O)CN3CCOCC3)c2)cc1 [Example 17, N-[4-(2-methoxypyridin-3-yl)phenyl]-3-[(morpholin-4-ylacetyl)amino]-4-(trifluoromethoxy)-benzamide] | 285 nM | ≥ 50000 nM |
| Nc1ncc(-c2ccc(NC(=O)c3ccc(OC(F)(F)F)c(NC(=O)CN4CCOCC4)c3)cc2)cn1 [Example 3, N-[4-(2-aminopyrimidin-5-yl)phenyl]-3-[(morpholin-4-ylacetyl)amino]-4-(trifluoromethoxy)-benzamide] | 49 nM | ≥ 50000 nM |
| CN(C)c1ncc(-c2ccc(NC(=O)c3ccc(OC(F)(F)F)c(NC(=O)CN4CCOCC4)c3)cc2)cn1 [Example 10, N-{4-[2-(dimethylamino)pyrimidin-5-yl]phenyl}-3-[(morpholin-4-ylacetyl)amino]-4-(trifluoromethoxy)benzamide] | 60.9 nM | ≥ 50000 nM |
| COc1ncc(-c2ccc(NC(=O)c3ccc(OC(F)(F)F)c(NC(=O)CN4CCOCC4)c3)cc2)cn1 [Example 9, N-[4-(2-methoxypyrimidin-5-yl)phenyl]-3-[(morpholin-4-ylacetyl)amino]-4-(trifluoromethoxy)-benzamide] | 410 nM | ≥ 50000 nM |

Now those with a lower IC50 [1], led by results:

| IC50 [1] | IC50 [2] | SMILES |
| --- | --- | --- |
| 34.1 nM | ≥ 50000 nM | Cc1ccc(C(=O)Nc2ccc(-c3cccnc3)cc2)cc1NC(=O)C1(N2CCOCC2)CC1 [Example 24, 4-methyl-3-({[1-(morpholin-4-yl)cyclopropyl]carbonyl}amino)-N-[4-(pyridin-3-yl)phenyl]benzamide] |
| 31.8 nM | 38500 nM | CN1CCN(CC(=O)Nc2cc(C(=O)Nc3ccc(-c4cccnc4F)cc3)ccc2OC(F)(F)F)CC1 [Example 31, N-[4-(2-fluoropyridin-3-yl)phenyl]-3-{[(4-methylpiperazin-1-yl)acetyl]amino}-4-(trifluoromethoxy)benzamide] |
| 25.3 nM | 28000 nM | CN1CCN(CC(=O)Nc2cc(C(=O)Nc3ccc(-c4ccc(N)nc4)cc3)ccc2OC(F)(F)F)CC1 [Example 34, N-[4-(6-aminopyridin-3-yl)phenyl]-3-{[(4-methylpiperazin-1-yl)acetyl]amino}-4-(trifluoromethoxy)-benzamide] |
| 23 nM | ≥ 50000 nM | O=C(CN1CCOCC1)Nc1cc(C(=O)Nc2ccc(-c3cccnc3)cc2)ccc1OC1CC1 [Example 35, 4-(cyclopropyloxy)-3-[(morpholin-4-ylacetyl)amino]-N-[4-(pyridin-3-yl)phenyl]benzamide] |
| 22.8 nM | ≥ 50000 nM | Nc1ccc(-c2ccc(NC(=O)c3ccc(OC(F)(F)F)c(NC(=O)CN4CCOCC4)c3)cc2)cn1 [Example 7, N-[4-(6-aminopyridin-3-yl)phenyl]-3-[(morpholin-4-ylacetyl)amino]-4-(trifluoromethoxy)benzamide] |
| 14.8 nM | ≥ 50000 nM | O=C(CN1CCOCC1)Nc1cc(C(=O)Nc2ccc(-c3cccnc3F)cc2)ccc1OC(F)(F)F [Example 4, N-[4-(2-fluoropyridin-3-yl)phenyl]-3-[(morpholin-4-ylacetyl)amino]-4-(trifluoromethoxy)benzamide] |
